Data taken from patent US20020098148A1, “NON-STEROIDAL RADIOLABELED AGONIST/ANTAGONIST COMPOUNDS AND THEIR USE IN PROSTATE CANCER IMAGING” (priority 1997, published 2002).

Experiments:
[1] = Cockshott et al. 1991; cited from earlier work
androgen receptor (AR) = target: T1, androgen receptor (AR) (Rattus norvegicus, UniProt P15207); assay: AR competitive binding with 3H-mibolerone in cytosol
T1 construct: The minimum concentration of ^3H-MIB to saturate AR sites in the cytosol preparation was 1 nM; from tissue; host or cells: cytosol
T1 sequence (P15207 1-902): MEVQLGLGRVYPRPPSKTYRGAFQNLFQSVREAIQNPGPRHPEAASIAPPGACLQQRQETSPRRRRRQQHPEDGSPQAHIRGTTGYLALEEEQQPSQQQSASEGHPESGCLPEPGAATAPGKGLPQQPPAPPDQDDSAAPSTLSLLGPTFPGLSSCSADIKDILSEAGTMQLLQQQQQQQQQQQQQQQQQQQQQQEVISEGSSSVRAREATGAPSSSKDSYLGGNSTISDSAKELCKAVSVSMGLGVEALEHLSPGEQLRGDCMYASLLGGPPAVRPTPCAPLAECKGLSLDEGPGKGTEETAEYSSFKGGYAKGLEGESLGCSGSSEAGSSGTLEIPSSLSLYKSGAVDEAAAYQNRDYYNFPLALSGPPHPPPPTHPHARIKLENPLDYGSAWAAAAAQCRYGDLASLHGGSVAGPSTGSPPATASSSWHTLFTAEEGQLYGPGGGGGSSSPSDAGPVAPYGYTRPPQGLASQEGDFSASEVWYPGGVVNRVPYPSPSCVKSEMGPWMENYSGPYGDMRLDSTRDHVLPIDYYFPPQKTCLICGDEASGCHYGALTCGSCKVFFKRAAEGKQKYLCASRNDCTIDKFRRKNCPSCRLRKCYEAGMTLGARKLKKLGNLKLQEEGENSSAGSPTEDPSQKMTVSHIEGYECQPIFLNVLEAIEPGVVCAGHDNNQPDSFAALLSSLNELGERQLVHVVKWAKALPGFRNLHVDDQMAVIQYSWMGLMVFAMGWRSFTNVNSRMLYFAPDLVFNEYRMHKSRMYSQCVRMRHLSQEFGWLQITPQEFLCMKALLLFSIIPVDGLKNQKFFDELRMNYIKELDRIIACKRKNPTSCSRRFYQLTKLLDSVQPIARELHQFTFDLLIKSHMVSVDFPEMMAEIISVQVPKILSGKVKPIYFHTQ
Experimental: For the determination of non-specific binding, separate experiments were conducted by adding 1,000 nM MIB to the incubate. Unless otherwise indicated, all experiments were repeated three times or more. […] Radioactivity was counted in a liquid scintillation counter (Model LS6800, Beckman Instruments Inc., Palo Alto, Calif.).
To determine the Kd of MIB, data were analyzed using a modified form of the Scatchard equation:
where B was the concentration of specifically-bound ^3H-MIB in the incubate, F was the concentration of free ^3H-MIB in the incubate, and Bmax was the maximum concentration of ^3H-MIB specifically bound to AR, which is also the concentration of available AR binding sites in the incubate. […]
For competition binding experiments, competitive displacement curves were constructed for each ligand with percent specific binding (specific binding of ^3H-MIB at a particular ligand concentration expressed as a percentage of the specific binding of ^3H-MIB in the absence of ligand) on the vertical axis and ligand concentration on the horizontal axis. […]
where B0 is the specific binding of ^3H-MIB in the absence of ligand, and C is the ligand concentration. Binding affinities of the ligands were then compared using the equilibrium dissociation constant (Ki) of each ligand, as calculated using the equation below: […]

| Structure (SMILES) | share of radioactivity in plasma accounted for by parent compound [1] | Ki (androgen receptor (AR)) | Ki value lower than that of R-Bicalutamide (androgen receptor (AR); R-isomer) |
| --- | --- | --- | --- |
| CC(O)(CS(=O)(=O)c1ccc(F)cc1)C(=O)Nc1ccc(C#N)c(C(F)(F)F)c1 (racemic) [racemic ^14C-labeled bicalutamide, bicalutamide] | virtually all of the radioactivity in plasma | – | – |
| C[C@](O)(CS(=O)(=O)c1ccc(I)cc1)C(=O)Nc1ccc(C#N)c(C(F)(F)F)c1 [Compound 2] | – | 3.1 nM | 73% |
